Where two headings read alike, the source gives them in different places.
Test system: FADD-deficient Jurkat cells
Assay: necroptosis assay: FADD-deficient Jurkat cells treated with TNFα, cell viability
Type: cell-based, human
Settings: for EC50: effective concentration for half-maximum response, inhibition of necroptosis in FADD-deficient Jurkat cells treated with TNFα; for activity in the necroptosis assay, in words / Max Prot: FADD-deficient Jurkat cells treated with TNFα; for Max Prot: max viability obtained in the presence of a compound; call rule not given here
Excerpt: Herein we describe the structure activity analysis of Nec-5 analogs.

SMILES	EC50	also measured
CSc1nc2sc3c(c2c(=O)n1-c1ccc(C)c(C)c1)CCC3 [Compound 142]	inactive	–
N#CCSc1nc2sc3ccccc3c2c(=O)n1-c1ccc(F)cc1 [Compound 144]	–	EC50 (read-out: EC50): 3.06 µM
CCOc1ccc(-n2c(SCC#N)nc3sc4ccccc4c3c2=O)cc1 [Compound 145]	inactive	–
N#CCSc1nc2sc3ccccc3c2c(=O)n1-c1ccc2c(c1)OCO2 [Compound 146]	–	activity in the necroptosis assay, in words: potent inhibitor; EC50 (read-out: EC50): 0.27 µM; Max Prot: 100%
N#CCSc1nc2sc3ccccc3c2c(=O)n1-c1ccc(OC(F)(F)F)cc1 [Compound 147]	inactive	–
CN(C)c1ccc(-n2c(SCC#N)nc3sc4ccccc4c3c2=O)cc1 [Compound 148]	inactive	Max Prot: inactive
CSc1nc2sc3ccccc3c2c(=O)n1-c1ccc(F)cc1 [Compound 150]	–	EC50 (read-out: EC50): 3.06 µM
CCOc1ccc(-n2c(SC)nc3sc4ccccc4c3c2=O)cc1 [Compound 151]	inactive	–
CSc1nc2sc3ccccc3c2c(=O)n1-c1ccc2c(c1)OCO2 [Compound 152]	inactive	–
CSc1nc2sc3ccccc3c2c(=O)n1-c1ccc(OC(F)(F)F)cc1 [Compound 153]	inactive	–
CCOc1ccc(-n2c(SCC#N)nc3sc(C)c(C)c3c2=O)cc1 [Compound 154]	–	EC50 (read-out: EC50): 7.77 µM; Max Prot: 97%
Cc1sc2nc(SCC#N)n(-c3ccc(OCc4ccccc4)cc3)c(=O)c2c1C [Compound 155]	inactive	–
Cc1sc2nc(SCC#N)n(-c3ccc(OC(F)(F)F)cc3)c(=O)c2c1C [Compound 156]	–	EC50 (read-out: EC50): 3.7 µM; Max Prot: 63%
Cc1sc2nc(SCC#N)n(-c3ccc(N(C)C)cc3)c(=O)c2c1C [Compound 157]	inactive	–
CCOc1ccc(-n2c(SC)nc3sc(C)c(C)c3c2=O)cc1 [Compound 158]	inactive	–
CSc1nc2sc(C)c(C)c2c(=O)n1-c1ccc(OCc2ccccc2)cc1 [Compound 159]	inactive	–
CSc1nc2sc(C)c(C)c2c(=O)n1-c1ccc(OC(F)(F)F)cc1 [Compound 160]	inactive	–
CSc1nc2sc(C)c(C)c2c(=O)n1-c1ccc(N(C)C)cc1 [Compound 161]	inactive	–
N#CCSc1nc2sccc2c(=O)n1-c1ccccc1 [Compound 162]	inactive	–

SMILES	EC50	also measured
N#CCSc1nc2sc3c(c2c(=O)n1-c1ccccc1)CCC3 [Compound 163]	inactive	–
CCOc1ccc(-n2c(SCC#N)nc3sc4c(c3c2=O)CCC4)cc1 [Compound 164]	inactive	–
N#CCSc1nc2sc3c(c2c(=O)n1-c1ccccc1)CCCCC3 [Compound 165]	inactive	–
COc1ccc(-n2c(SCC#N)nc3sc4c(c3c2=O)CCC(C)C4)cc1OC (centres unmarked) [Compound 166]	inactive	–
N#CCSc1nc2sc3c(c2c(=O)n1-c1ccc(OC(F)(F)F)cc1)CCC3 [Compound 167]	–	activity in the necroptosis assay, in words: showed some, albeit greatly reduced, activity; EC50 (read-out: EC50): 3.7 µM; Max Prot: 70%
N#CCSc1nc2sc3c(c2c(=O)n1-c1ccc(OC(F)(F)F)cc1)CCCCC3 [Compound 168]	inactive	–
COc1ccc(-n2c(SCC#N)nc3sc4c(c3c2=O)CCC4)cc1OC [Compound 169]	inactive	–
C=CCSc1nc2sc3c(c2c(=O)n1-c1ccccc1)CCCC3 [Compound 170]	inactive	–
O=c1c2c3c(sc2nc(SCc2ccccc2)n1-c1ccccc1)CCCC3 [Compound 171]	inactive	–
CSc1nc2sccc2c(=O)n1-c1ccccc1 [Compound 173]	inactive	–
COc1ccc(-n2c(SC)nc3sc4c(c3c2=O)CCC(C)C4)cc1OC (centres unmarked) [Compound 174]	inactive	–
CCSc1nc2sc3c(c2c(=O)n1-c1ccccc1)CCCCC3 [Compound 175]	inactive	–
C#CCSc1nc2sc(C)c(C)c2c(=O)n1-c1ccc2c(c1)OCO2 [Compound 176]	inactive	–
C#CCSc1nc2sc(C)c(CC)c2c(=O)n1-c1ccc2c(c1)OCO2 [Compound 177]	inactive	–
CCOc1ccc(-n2c(SC)nc3sc4c(c3c2=O)CCC4)cc1 [Compound 178]	inactive	–
CCc1c(C)sc2nc(SCCO)n(-c3ccc4c(c3)OCO4)c(=O)c12 [Compound 180]	inactive	–
CCN1CCc2c(sc3nc(SC)n(-c4ccccc4)c(=O)c23)C1 [Compound 181]	inactive	–
CSc1nc2sc3c(c2c(=O)n1-c1ccc(OC(F)(F)F)cc1)CCC3 [Compound 182]	inactive	–

Source: patent US20140024662A1, “COMPOUNDS, SCREENS, AND METHODS OF TREATMENT” (Shanghai Institute of Organic Chemistry, priority 2006, published 2014)
